Experimental data from patent US9192611B2, “Formulations comprising methylthioninium chloride” (WisTa Laboratories Ltd., priority 2010, dated 2015).

What was measured:
[1] = Thermodynamic stability of MTC hydrates as a function of RH and temperature; conditions: any T and RH; kinetically stable in a certain range
[2] = background statement; cited from earlier work

CN(C)c1ccc2nc3ccc(=[N+](C)C)cc-3sc2c1 [Form B, Methylthioninium chloride]
Thermodynamic stability, in words [1]: not thermodynamically stable

CN(C)c1ccc2nc3ccc(=[N+](C)C)cc-3sc2c1 [Form A, Methylthioninium chloride]
RH down to which high kinetic stability is observed [2]: less than 20%
